US20080039482A1, “SULFONAMIDO-MACROCYCLES AS TIE2 INHIBITORS AND SALTS THEREOF, PHARMACEUTICAL COMPOSITIONS COMPRISING SAME, METHODS OF PREPARING SAME AND USES OF SAME” (priority 2006, published 2008)

Columns and labels:
CDK2/CycE = target: T1, CDK2/CycE (Homo sapiens, UniProt P24941); assay: CDK2 HTRF assay (assay 4); type: biochemical; conditions: IC50 assay 4/IC50 assay 2
T1 construct: GST; purchased ProQinase GmbH (Freiburg, Germany); host or cells: insect cells (Sf9)
Text: CDK2/CycE-inhibitory activity of compounds of the present invention was quantified employing the CDK2/CycE HTRF assay as described in the following paragraphs.
Recombinant fusion proteins of GST and human CDK2 and of GST and human CycE, expressed in insect cells (Sf9) and purified by Glutathion-Sepharose affinity chromatography, were purchase from ProQinase GmbH (Freiburg, Germany). As substrate for the kinase reaction biotinylated peptide biotin-Ttds-YISPLKSPYKISEG (C-terminus in amid form) was used which can be purchased e.g. form the company JERINI peptide technologies (Berlin, Germany).
CDK2/CycE was incubated for 60 min at 22° C. in the presence of different concentrations of test compounds in 5 μl assay buffer [50 mM Tris/HCl pH 8.0, 10 mM MgCl2, 1.0 mM dithiothreitol, 0.1 mM sodium ortho-vanadate, 10 μM adenosine-tri-phosphate (ATP), 0.75 μM substrate, 0.01% (v/v) Nonidet-P40 (Sigma), 1% (v/v) dimethylsulfoxide]. The concentration of CDK2/CycE was adjusted depending of the activity of the enzyme lot and was chosen appropriate to have the assay in the linear range, typical concentrations were in the range of 1 ng/ml. The reaction was stopped by the addition of 5 μl of a solution of HTRF detection reagents (0.2 μM streptavidine-XLent and 3.4 nM Phospho-(Ser) CDKs Substrate Antibody [product #2324B, Cell Signalling Technology, Danvers, Mass., USA} and 4 nM Prot-A-EuK [Protein A labeled with Europium Cryptate from Cis biointernational, France, product no. 61PRAKLB]) in an aqueous EDTA-solution (100 mM EDTA, 800 mM KF, 0.2% (w/v) bovine serum albumin in 100 mM HEPES/NaOH pH 7.0).

Tie2 = Tie2 (Homo sapiens, UniProt Q02763); assay: Tie2 ELISA assay (assay 1): Ang2-stimulated Tie2 autophosphorylation in transfected CHO cells; type: cell-based; set-up: expressed in transfected cells; host or cells: CHO (DHFR selection); conditions: CHO Tie2/DHFR cells stimulated by angiopoietin-2, pIC50 = -log IC50 in molar concentration, read-out: Tie 2 activity (assay 1)
Chain of Tie2 (Q02763 23-1124, species assumed): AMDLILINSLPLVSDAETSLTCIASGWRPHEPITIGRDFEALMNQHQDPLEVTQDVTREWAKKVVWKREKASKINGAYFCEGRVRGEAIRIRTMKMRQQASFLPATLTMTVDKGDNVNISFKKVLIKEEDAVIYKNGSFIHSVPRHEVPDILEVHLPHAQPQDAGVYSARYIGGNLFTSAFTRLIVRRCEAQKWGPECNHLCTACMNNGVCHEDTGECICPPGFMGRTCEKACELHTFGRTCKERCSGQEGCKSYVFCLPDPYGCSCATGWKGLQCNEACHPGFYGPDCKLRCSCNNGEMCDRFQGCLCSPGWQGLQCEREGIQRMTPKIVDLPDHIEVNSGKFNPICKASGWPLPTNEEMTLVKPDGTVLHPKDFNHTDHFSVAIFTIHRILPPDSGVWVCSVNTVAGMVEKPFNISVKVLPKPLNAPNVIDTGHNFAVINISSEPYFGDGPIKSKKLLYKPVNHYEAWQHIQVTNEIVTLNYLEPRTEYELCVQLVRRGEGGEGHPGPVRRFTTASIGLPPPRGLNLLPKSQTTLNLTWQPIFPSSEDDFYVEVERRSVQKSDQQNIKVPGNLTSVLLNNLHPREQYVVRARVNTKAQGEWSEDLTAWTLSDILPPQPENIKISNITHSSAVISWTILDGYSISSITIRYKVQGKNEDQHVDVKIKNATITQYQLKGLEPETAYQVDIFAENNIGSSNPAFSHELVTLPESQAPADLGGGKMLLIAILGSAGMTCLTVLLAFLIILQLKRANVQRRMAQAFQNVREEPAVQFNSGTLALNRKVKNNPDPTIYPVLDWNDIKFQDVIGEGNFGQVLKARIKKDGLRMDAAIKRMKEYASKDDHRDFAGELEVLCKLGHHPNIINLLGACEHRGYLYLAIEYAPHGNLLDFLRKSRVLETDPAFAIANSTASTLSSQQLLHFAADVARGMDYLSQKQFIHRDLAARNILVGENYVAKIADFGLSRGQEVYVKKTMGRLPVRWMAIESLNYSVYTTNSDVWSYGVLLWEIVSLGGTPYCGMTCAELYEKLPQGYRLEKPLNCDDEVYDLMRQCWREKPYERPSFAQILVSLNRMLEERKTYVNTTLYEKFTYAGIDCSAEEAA
Procedure: Cellular activity of compounds of the present invention as inhibitors of Tie2 kinase activity was measured employing a Tie2 ELISA assay as described in the following paragraphs. Herein CHO cell-cultures, which are stably transfected by known techniques with Tie2 using DHFR deficiency as selection marker, are stimulated by angiopoietin-2. The specific autophosphorylation of Tie2 receptors is quantified with a sandwich-ELISA using anti-Tie2 antibodies for catch and anti-phosphotyrosine antibodies coupled to HRP for detection.
• 96 well tissue culture plate, sterile, Greiner • 96 well FluoroNunc plate MaxiSorp Surface C, Nunc • 96 well plate polypropylene for compound dilution in DMSO • CHO Tie2/DHFR (transfected cells) • PBS−; PBS++, DMSO • MEM alpha Medium with Glutamax-I without Ribonucleosides and Deoxyribonucleosides (Gibco #32561-029) with 10% FCS after dialysis! and 1% PenStrep • Lysis buffer: 1 Tablet “Complete” protease inhibitor • 1 cap Vanadate (1 mL>40 mg/mL; working solution 2 mM) • ad 50 mL with Duschl-Puffer • pH 7.6 • Anti-Tie2-antibody 1:425 in Coating Buffer pH 9.6 • Stock solution: 1.275 mg/mL>working: 3 μg/mL • PBST: 2 bottles PBS (10×)+10 ml Tween, fill up with VE-water • RotiBlock 1:10 in VE-water • Anti-Phosphotyrosine HRP-Conjugated 1:10000 in 3% TopBlock • 3% TopBlock in PBST • BM Chemiluminescence ELISA Substrate (POD) • solution B 1:100 solution A • SF9 cell culture medium • Ang2-Fc in SF9 cell culture medium Cell Experiment: • Dispense 5×10^4 cells/well/98 μL in 96 well tissue culture plate • Incubate at 37° C./5% CO2 • After 24 h add compounds according to desired concentrations • Add also to control and stimulated values without compounds 2 μL DMSO • And mix for a few min at room temperature • Add 100 μL Ang2-Fc to all wells except control, which receives insect medium • Incubate 20 min at 37° C. • Wash 3× with PBS++ • Add 100 μl Lysis buffer/well and shake a couple of min at room temperature • Store lysates at […] before utilizing for the ELISA Performance of Sandwich-ELISA • Coat 96 well FluoroNunc Plate MaxiSorp Surface C with anti-Tie2 mAb • 1:425 in Coating buffer pH 9.6; 100 μL/well overnight at 4° C. • Wash 2× with PBST • Block plates with 250 μL/well RotiBlock 1:10 in VE-water • Incubate for 2 h at room temperature or overnight at 4° C. shaking • Wash 2× in PBST • Add thawed lysates to wells and incubate overnight shaking at 4° C. • Wash 2× with PBST • Add 100 μL/well anti-Phosphotyrosine HRP-Conjugated 1:10000 in 3% • TopBlock (3% TopBlock in PBST) and incubate overnight under shaking • Wash 6× with PBST • Add 100 μL/well BM Chemiluminescence ELISA Substrate (POD) • solutions 1 und 2 (1:100) • Determine luminescence with the LumiCount. Assay 2: Tie-2-Kinase HTRF-Assay Without Kinase Preactivation

Row | Compound | Selectivity vs. CDK2 (CDK2/CycE) | IC50 (Tie2)
1 | O=C(Nc1ccc(-c2cnc3nc2NCCCNS(=O)(=O)c2cccc(c2)N3)cc1)C1(c2ccc(C(F)(F)F)cc2)CC1 [Example 11, 1-(4-Trifluoromethyl-phenyl)-cyclopropane-carboxylic acid [4-(13,13-dioxo-13λ^6-thia-2,4,8,12,19-pentaaza-tricyclo[12.3.1.1^3,7]nonadeca-1(18),3(19),4,6,14,16-hexaen-6-yl)-phenyl]-amide] | >20 fold | < 0.1 µM
2 | CC(C)(C(=O)Nc1ccc(-c2cnc3nc2NCCCNS(=O)(=O)c2cccc(c2)N3)cc1)c1ccc(Cl)cc1 [Example 13, 2-(4-Chloro-phenyl)-N-[4-(13,13-dioxo-13λ^6-thia-2,4,8,12,19-pentaaza-tricyclo[12.3.1.1^3,7]-nonadeca-1(18),3(19),4,6,14,16-hexaen-6-yl)-phenyl]-isobutyramide] | >20 fold | 0.1 to 1 µM
3 | Cc1ccccc1C1(C(=O)Nc2ccc(-c3cnc4nc3NCCCNS(=O)(=O)c3cccc(c3)N4)cc2)CC1 [Example 2, 1-o-Tolyl-cyclopropane-arboxylic acid [4-(13,13-dioxo-13λ^6-thia-2,4,8,12,19-pentaaza-tricyclo[12.3.1.1^3,7]nonadeca-1(18),3(19),4,6,14,16-hexaen-6-yl)-phenyl]-amide] | >20 fold | < 0.1 µM
4 | O=C(Nc1ccc(-c2cnc3nc2NCCCNS(=O)(=O)c2cccc(c2)N3)cc1)C1(c2ccccc2F)CC1 [Example 7, 1-(2-Fluoro-phenyl)-cyclopropane-carboxylic acid [4-(13,13-dioxo-13λ^6-thia-2,4,8,12,19-pentaaza-tricyclo[12.3.1.1^3,7]nonadeca-1(18),3(19),4,6,14,16-hexaen-6-yl)-phenyl]-amide] | >20 fold | < 0.1 µM
5 | Cc1ccc(C2(C(=O)Nc3ccc(-c4cnc5nc4NCCCNS(=O)(=O)c4cccc(c4)N5)cc3)CC2)cc1 [Example 1, 1-p-Tolyl-cyclopropane-carboxylic acid [4-(13,13-dioxo-13λ^6-thia-2,4,8,12,19-pentaaza-tricyclo[12.3.1.1^3,7]nonadeca-1(18),3(19),4,6, 14,16-hexaen-6-yl)-phenyl]-amide] | >20 fold | < 0.1 µM
6 | O=C(Nc1ccc(-c2cnc3nc2NCCCNS(=O)(=O)c2cccc(c2)N3)cc1)C1(c2cc(C(F)(F)F)ccc2F)CC1 [Example 12, 1-(2-Fluoro-5-trifluoromethyl-phenyl)-cyclopropane-carboxylic acid [4-(13,13-dioxo-13λ^6-thia-2,4,8,12,19-pentaaza-tricyclo[12.3.1.1^3,7]-nonadeca-1(18),3(19),4,6,14,16-hexaen-6-yl)-phenyl]-amide] | >20 fold | < 0.1 µM
7 | COc1ccc(C2(C(=O)Nc3ccc(-c4cnc5nc4NCCCNS(=O)(=O)c4cccc(c4)N5)cc3)CC2)cc1 [Example 4, 1-(4-Methoxy-phenyl)-cyclopropane-carboxylic acid [4-(13,13-dioxo-13λ^6-thia-2,4,8,12,19-pentaaza-tricyclo[12.3.1.1^3,7]-nonadeca-1(18),3(19),4,6,14,16-hexaen-6-yl)-phenyl]-amide] | >20 fold | < 0.1 µM

Now from value to compound:

Row | Selectivity vs. CDK2 (CDK2/CycE) | IC50 (Tie2) | Compound
8 | >20 fold | < 0.1 µM | O=C(Nc1ccc(-c2cnc3nc2NCCCNS(=O)(=O)c2cccc(c2)N3)cc1)C1(c2cccc(Cl)c2)CC1 [Example 5, 1-(3-Chloro-phenyl)-cyclopropane-arboxylic acid [4-(13,13-dioxo-13λ^6-thia-2,4,8,12,19-pentaaza-tricyclo[12.3.1.1^3,7]-nadeca-1(18),3(19),4,6,14,16-hexaen-6-yl)-phenyl]-amide]
9 | >20 fold | < 0.1 µM | O=C(Nc1ccc(-c2cnc3nc2NCCCNS(=O)(=O)c2cccc(c2)N3)cc1)C1(c2ccc(Cl)cc2)CC1 [Example 6, 1-(4-Chloro-phenyl)-cyclopropane-carboxylic acid [4-(13,13-dioxo-13λ^6-thia-2,4,8,12,19-pentaaza-tricyclo[12.3.1.1^3,7]-nonadeca-1(18),3(19),4,6,14,16-hexaen-6-yl)-phenyl]-amide]
10 | >20 fold | < 0.1 µM | COc1cccc(C2(C(=O)Nc3ccc(-c4cnc5nc4NCCCNS(=O)(=O)c4cccc(c4)N5)cc3)CC2)c1 [Example 3, 1-(3-Methoxy-phenyl)-cyclopropane-carboxylic acid [4-(13,13-dioxo-13λ^6-thia-2,4,8,12,19-pentaaza-tricyclo[12.3.1.1^3,7]nonadeca-1(18),3(19),4,6,14,16-hexaen-6-yl)-phenyl]-amide]
11 | >20 fold | < 0.1 µM | O=C(Nc1ccc(-c2cnc3nc2NCCCNS(=O)(=O)c2cccc(c2)N3)cc1)C1(c2cccc(C(F)(F)F)c2)CC1 [Example 10, 1-(3-Trifluoromethyl-phenyl)-cyclopropane-carboxylic acid [4-(13,13-dioxo-13λ^6-thia-2,4,8,12,19-pentaaza-tricyclo[12.3.1.1^3,7]nonadeca-1(18),3(19),4,6,14,16-hexaen-6-yl)-phenyl]-amide]
12 | >20 fold | < 0.1 µM | O=C(Nc1ccc(-c2cnc3nc2NCCCNS(=O)(=O)c2cccc(c2)N3)cc1)C1(c2ccc(F)cc2)CC1 [Example 9, 1-(4-Fluoro-phenyl)-cyclopropane-carboxylic acid [4-(13,13-dioxo-13λ^6-thia-2,4,8,12,19-pentaaza-tricyclo[12.3.1.1^3.7]nonadeca-1(18),3(19),4,6,14,16-hexaen-6-yl)-phenyl]-amide]
13 | >20 fold | < 0.1 µM | O=C(Nc1ccc(-c2cnc3nc2NCCCNS(=O)(=O)c2cccc(c2)N3)cc1)C1(c2cccc(F)c2)CC1 [Example 8, 1-(3-Fluoro-phenyl)-cyclopropane-carboxylic acid [4-(13,13-dioxo-13λ^6-thia-2,4,8,12,19-pentaaza-tricyclo[12.3.1.1^3,7]nonadeca-1(18),3(19),4,6,14,16-hexaen-6-yl)-phenyl]-amide]
